Experimental data: PubChem BioAssay (NCI)
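Protocol summary: plate cells (96-well), add compound at 5 concentrations, incubate 48 h, interpolate endpoints linearly. Here, GI50 denotes the concentration required for 50% inhibition of growth. TGI denotes the concentration required for complete inhibition of growth.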

Tests used:
Experiment in all cases: inhibition of tumour cell growth, NCI panel, 48 h
A498 renal = system: A498 renal
A549 NSCLC = system: A549 NSCLC
COLO 205 colon = system: COLO 205 colon
HCC-2998 colon = system: HCC-2998 colon
HS 578T breast = system: HS 578T breast
MDA-MB-231 breast = system: MDA-MB-231 breast
SF-295 CNS = system: SF-295 CNS
SK-MEL-2 melanoma = system: SK-MEL-2 melanoma
SK-MEL-28 melanoma = system: SK-MEL-28 melanoma
SNB-75 CNS = system: SNB-75 CNS

SMILES | GI50 (A498 renal) [µM] | TGI (A498 renal) [µM] | GI50 (A549 NSCLC) [µM] | TGI (A549 NSCLC) [µM] | GI50 (COLO 205 colon) [µM] | TGI (COLO 205 colon) [µM] | GI50 (HCC-2998 colon) [µM] | TGI (HCC-2998 colon) [µM] | GI50 (HS 578T breast) [µM] | TGI (HS 578T breast) [µM] | GI50 (MDA-MB-231 breast) [µM] | TGI (MDA-MB-231 breast) [µM] | GI50 (SF-295 CNS) [µM] | TGI (SF-295 CNS) [µM] | GI50 (SK-MEL-2 melanoma) [µM] | TGI (SK-MEL-2 melanoma) [µM] | GI50 (SK-MEL-28 melanoma) [µM] | TGI (SK-MEL-28 melanoma) [µM] | GI50 (SNB-75 CNS) [µM] | TGI (SNB-75 CNS) [µM]
Fc1ccc(-c2ncn(C3CCNCC3)c2-c2ccnc(Oc3ccccc3)n2)cc1 | > 16.1 | > 25 | 20.1 | > 25 | 7.32 | 18.6 | 12.8 | > 25 | > 13.1 | > 25 | 13.4 | > 25 | 18.2 | > 25 | > 25 | > 25 | 16.9 | > 25 | > 19.3 | > 25
CCOC(=O)C1=C(N)Oc2c(sc3c(C)cccc23)C1c1ccc(Cl)cc1 (stereo not given) | 1 | 7.09 | 3.9 | 18.8 | 3.46 | 14.1 | 2.32 | 6.63 | 1.78 | 6.95 | 4.29 | 17.4 | 1.89 | 4.26 | 5.83 | 22.4 | 10.3 | 23.6 | 0.643 | 7.79
O=C(c1ccccn1)c1nnn2ccccc12 |  | > 100 |  | > 100 |  | > 100 |  | > 100 |  | > 100 |  | > 100 |  | > 100 |  | > 100 |  | > 100 |  | > 100
COc1ccc(-c2cn(-c3ccc(Cl)cc3)c(=S)[nH]2)cc1OC | 3.63 | 53.9 | 66.4 | > 100 | 5.61 | > 100 | 56.2 | > 100 | 19.2 | > 100 | 1.5 | 87 | 6.05 | > 100 | > 100 | > 100 | 22.3 | > 100 | 16.4 | 60.3
Nc1ncnc2c1c(-c1cccc(OCc3ccccc3)c1)cn2C1CC(CN2CCCC2)C1 (stereo not given) | 1.72 | 4.66 | 0.939 | 7.17 | 0.331 | 1.47 | 2 | 6.13 | 1.6 | 4.19 | 1.88 | 4.54 | 1.9 | 3.87 | 1.66 | 3.35 | 1.4 | 2.8 | 1.24 | 3.19
CCOC(=O)c1ccc2c(c1)[n+](=O)c(C(=O)c1ccc3ccccc3c1)c(C(F)(F)F)n2[O-] | 1.66 | 3.09 | 1.89 | 3.62 | 1.52 | 2.87 | 1.65 | 3.03 | 1.57 | 3.62 | 1.58 | 3.15 | 1.78 | 3.17 | 1.82 | 3.4 | 1.66 | 3.02 | 1.13 | 2.34
CSC(=S)N/N=C/c1ccccc1 |  | > 100 |  | > 100 |  | > 100 |  | > 100 |  | > 100 |  | > 100 |  | > 100 |  | > 100 |  | > 100 |  | > 100
O=C(Nc1ccc(Cl)c(Cl)c1)C(=O)C(C1OC(=O)c2ccccc21)[N+](=O)[O-] (stereo not given) |  | > 100 |  | > 100 |  | > 100 |  | > 100 |  | > 100 |  | > 100 |  | > 100 |  | > 100 |  | > 100 |  | > 100
COC1OCC(OS(=O)(=O)c2ccc(C)cc2)C(OC(=O)c2ccccc2)C1OC(=O)c1ccccc1 (stereo not given) | 4.53 | 90.9 | 6.14 | > 100 | 4.14 | > 100 | > 100 | > 100 | 1.89 | 27.4 | 7.02 | > 100 | 3.63 | > 100 | 5.72 | > 100 | 4.62 | > 100 | 1.78 | 4.65
O=C1CSC(=S)N1c1ccc(F)cc1F |  | > 100 |  | > 100 |  | > 100 |  | > 100 |  | > 100 |  | > 100 |  | > 100 |  | > 100 |  | > 100 |  | > 100
Fc1ccc(CNc2c3ccccc3nc3ccccc23)cc1 | 1.36 | 3.24 | 2.84 | 10.8 | 1.66 | 3.7 | 1.95 | 4.62 | 3.05 | 10.7 | 1.9 | 5.58 | 2.9 | 11.1 | 2.39 | 6.01 | 3.27 | 11.6 | 2.01 | 10.8
Cc1ccc(Cl)cc1Nc1nc(C(F)(F)F)ccc1C(=O)N/N=C/c1c(Cl)cccc1Cl | 0.929 | 5.61 | 1.5 | > 100 | 0.395 | 1.72 | 1.24 | 31.5 | 1.04 | 6.18 | 0.524 | 2.85 | 0.556 | 3.61 | 1.94 | 4.86 | 1.84 | 32.1 | 1.45 | > 24.2
